One may read the AC50 as the concentration giving half of the maximal activity seen.

The structures appear in SMILES notation. *1 amine or outer side, *2 acyl side, *3 side chain or, on linkers, in order; H or OH if unused. Where a SMILES comes first, the peptide text is derived from it. Bridges are numbered along the chain shown (N, C = ends). [ ]: non-standard residue; d: D form. The star is where a group is joined. hTyr(3S-OH,4S-OH,3'-OSO3H) = N[C@H](C(=O)O)[C@H](O)[C@@H](O)c1ccc(O)c(OS(=O)(=O)O)c1; Orn(4R-OH,5R-OH) = O=C([C@H](C[C@@H](O)[C@@H](O)N[*:3])N[*:1])[*:2]; Pro(3S-OH,4S-Me) = C[C@H]1CN[C@H](C(=O)O)[C@H]1O; X1 = CCCCCOc1ccc(-c2cc(-c3ccc(C(=O)*)cc3)no2)cc1; Gln(3R-OH) = NC(=O)C[C@@H](O)[C@H](N)C(=O)O; Hyp = O=C(O)[C@@H]1C[C@@H](O)CN1 Some results are limits rather than exact numbers.

Experimental findings from ChEMBL document CHEMBL5291721, “A preclinical secondary pharmacology resource illuminates target-adverse drug reaction associations of marketed drugs” (Nat Commun, 2023) are described below.

Assay [1] concerns the target Vascular endothelial growth factor receptor 2 (Homo sapiens, UniProt P35968). The format is functional.
The target of assay [2] is T1, Alpha-2C adrenergic receptor (Homo sapiens, UniProt P18825).
T1 sequence (P18825 whole entry): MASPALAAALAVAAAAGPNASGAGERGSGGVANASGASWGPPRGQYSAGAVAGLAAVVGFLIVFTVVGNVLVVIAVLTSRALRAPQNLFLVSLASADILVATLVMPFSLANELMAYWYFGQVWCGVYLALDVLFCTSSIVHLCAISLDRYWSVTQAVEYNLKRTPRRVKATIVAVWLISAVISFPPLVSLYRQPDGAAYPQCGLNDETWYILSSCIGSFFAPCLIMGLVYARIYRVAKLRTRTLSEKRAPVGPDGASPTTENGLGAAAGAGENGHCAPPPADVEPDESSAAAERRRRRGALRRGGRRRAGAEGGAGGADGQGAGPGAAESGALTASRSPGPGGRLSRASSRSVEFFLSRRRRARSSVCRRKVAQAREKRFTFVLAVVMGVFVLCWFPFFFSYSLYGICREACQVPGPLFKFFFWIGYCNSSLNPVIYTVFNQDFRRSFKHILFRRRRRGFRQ
It counts as functional.

For assay [3], the target named is 5-hydroxytryptamine receptor 2B (Homo sapiens, UniProt P41595). The format is functional, cell-based.
Chain of 5-hydroxytryptamine receptor 2B (P41595 whole entry): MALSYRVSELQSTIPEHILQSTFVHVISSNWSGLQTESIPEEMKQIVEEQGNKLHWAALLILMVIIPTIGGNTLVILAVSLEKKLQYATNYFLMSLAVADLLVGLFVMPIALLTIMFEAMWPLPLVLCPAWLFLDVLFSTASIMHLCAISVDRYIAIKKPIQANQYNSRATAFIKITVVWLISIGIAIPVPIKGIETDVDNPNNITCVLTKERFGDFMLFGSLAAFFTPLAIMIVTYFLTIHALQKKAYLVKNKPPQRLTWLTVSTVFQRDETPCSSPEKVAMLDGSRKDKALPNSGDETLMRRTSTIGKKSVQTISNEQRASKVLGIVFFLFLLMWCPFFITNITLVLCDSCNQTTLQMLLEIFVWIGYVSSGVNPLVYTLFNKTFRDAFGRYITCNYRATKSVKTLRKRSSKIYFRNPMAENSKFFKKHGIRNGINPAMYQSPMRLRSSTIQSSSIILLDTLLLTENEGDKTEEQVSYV
Assay [4] concerns the target T2, Type-1 angiotensin II receptor (Homo sapiens, UniProt P30556).
T2 sequence (P30556 whole entry): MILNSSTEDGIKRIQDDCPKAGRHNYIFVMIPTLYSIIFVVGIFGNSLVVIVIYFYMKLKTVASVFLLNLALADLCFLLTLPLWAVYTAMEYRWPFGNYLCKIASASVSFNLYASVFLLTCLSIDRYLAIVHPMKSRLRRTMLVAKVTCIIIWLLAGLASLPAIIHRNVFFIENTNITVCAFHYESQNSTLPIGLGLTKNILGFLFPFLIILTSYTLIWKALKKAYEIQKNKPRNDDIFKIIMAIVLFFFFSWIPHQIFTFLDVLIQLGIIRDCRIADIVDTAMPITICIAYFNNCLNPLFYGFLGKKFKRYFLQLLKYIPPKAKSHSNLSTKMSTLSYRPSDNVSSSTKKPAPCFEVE

The target in assay [5] is T3, 5-hydroxytryptamine receptor 1A (Homo sapiens, UniProt P08908).
T3 sequence (P08908 whole entry): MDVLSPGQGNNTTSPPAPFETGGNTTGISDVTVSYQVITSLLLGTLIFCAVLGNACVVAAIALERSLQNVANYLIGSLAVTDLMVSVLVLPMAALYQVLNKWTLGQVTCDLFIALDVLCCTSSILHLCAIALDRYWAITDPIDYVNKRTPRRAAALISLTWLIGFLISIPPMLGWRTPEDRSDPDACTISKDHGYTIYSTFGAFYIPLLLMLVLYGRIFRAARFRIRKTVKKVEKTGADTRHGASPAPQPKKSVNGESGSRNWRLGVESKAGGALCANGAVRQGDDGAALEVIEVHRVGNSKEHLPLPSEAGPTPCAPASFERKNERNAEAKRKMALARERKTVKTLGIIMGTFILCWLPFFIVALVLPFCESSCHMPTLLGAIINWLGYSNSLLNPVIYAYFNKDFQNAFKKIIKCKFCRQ
The format is functional, cell-based.

The target of another assay is T4, Progesterone receptor (Homo sapiens, UniProt P06401).
T4 sequence (P06401 whole entry): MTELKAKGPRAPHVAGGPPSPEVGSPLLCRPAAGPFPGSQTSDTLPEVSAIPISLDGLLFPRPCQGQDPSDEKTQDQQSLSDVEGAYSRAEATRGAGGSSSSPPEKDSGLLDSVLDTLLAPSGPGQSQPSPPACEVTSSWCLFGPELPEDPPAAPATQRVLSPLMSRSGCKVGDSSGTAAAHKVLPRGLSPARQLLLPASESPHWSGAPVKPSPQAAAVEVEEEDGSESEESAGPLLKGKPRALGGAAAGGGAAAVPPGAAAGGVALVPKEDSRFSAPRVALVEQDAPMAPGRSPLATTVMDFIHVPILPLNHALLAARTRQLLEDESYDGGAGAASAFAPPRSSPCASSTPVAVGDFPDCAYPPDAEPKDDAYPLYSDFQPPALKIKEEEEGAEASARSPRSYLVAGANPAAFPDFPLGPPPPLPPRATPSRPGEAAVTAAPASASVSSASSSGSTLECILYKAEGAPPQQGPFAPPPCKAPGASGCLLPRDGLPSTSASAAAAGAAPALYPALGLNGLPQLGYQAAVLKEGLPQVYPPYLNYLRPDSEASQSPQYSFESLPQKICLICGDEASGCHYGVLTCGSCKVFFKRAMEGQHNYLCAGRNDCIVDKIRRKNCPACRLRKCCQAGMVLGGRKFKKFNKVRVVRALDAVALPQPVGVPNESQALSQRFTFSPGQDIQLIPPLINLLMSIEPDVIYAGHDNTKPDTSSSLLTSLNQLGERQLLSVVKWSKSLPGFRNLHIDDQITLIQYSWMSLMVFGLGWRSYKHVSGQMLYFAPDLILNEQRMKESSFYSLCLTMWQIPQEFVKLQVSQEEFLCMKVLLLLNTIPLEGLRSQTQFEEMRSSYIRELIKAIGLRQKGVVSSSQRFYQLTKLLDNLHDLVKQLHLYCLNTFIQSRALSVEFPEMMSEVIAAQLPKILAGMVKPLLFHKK
It counts as functional.

Assay [6] concerns the target T5, Muscarinic acetylcholine receptor M2 (Homo sapiens, UniProt P08172).
T5 sequence (P08172 whole entry): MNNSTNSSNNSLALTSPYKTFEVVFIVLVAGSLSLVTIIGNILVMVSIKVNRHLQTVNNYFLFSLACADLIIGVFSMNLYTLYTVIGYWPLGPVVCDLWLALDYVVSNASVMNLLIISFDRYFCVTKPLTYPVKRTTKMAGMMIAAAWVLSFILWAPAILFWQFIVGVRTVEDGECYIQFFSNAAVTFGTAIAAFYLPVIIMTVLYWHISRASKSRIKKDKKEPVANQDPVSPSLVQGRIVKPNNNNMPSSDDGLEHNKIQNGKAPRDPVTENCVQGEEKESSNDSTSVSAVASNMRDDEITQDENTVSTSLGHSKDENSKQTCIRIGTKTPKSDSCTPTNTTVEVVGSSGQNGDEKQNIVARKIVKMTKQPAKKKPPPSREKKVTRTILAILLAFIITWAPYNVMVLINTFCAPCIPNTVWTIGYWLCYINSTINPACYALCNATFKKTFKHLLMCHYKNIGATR
The format is functional, cell-based.
Note: assay procedure not described here.

Chain of Vascular endothelial growth factor receptor 2 (P35968 whole entry): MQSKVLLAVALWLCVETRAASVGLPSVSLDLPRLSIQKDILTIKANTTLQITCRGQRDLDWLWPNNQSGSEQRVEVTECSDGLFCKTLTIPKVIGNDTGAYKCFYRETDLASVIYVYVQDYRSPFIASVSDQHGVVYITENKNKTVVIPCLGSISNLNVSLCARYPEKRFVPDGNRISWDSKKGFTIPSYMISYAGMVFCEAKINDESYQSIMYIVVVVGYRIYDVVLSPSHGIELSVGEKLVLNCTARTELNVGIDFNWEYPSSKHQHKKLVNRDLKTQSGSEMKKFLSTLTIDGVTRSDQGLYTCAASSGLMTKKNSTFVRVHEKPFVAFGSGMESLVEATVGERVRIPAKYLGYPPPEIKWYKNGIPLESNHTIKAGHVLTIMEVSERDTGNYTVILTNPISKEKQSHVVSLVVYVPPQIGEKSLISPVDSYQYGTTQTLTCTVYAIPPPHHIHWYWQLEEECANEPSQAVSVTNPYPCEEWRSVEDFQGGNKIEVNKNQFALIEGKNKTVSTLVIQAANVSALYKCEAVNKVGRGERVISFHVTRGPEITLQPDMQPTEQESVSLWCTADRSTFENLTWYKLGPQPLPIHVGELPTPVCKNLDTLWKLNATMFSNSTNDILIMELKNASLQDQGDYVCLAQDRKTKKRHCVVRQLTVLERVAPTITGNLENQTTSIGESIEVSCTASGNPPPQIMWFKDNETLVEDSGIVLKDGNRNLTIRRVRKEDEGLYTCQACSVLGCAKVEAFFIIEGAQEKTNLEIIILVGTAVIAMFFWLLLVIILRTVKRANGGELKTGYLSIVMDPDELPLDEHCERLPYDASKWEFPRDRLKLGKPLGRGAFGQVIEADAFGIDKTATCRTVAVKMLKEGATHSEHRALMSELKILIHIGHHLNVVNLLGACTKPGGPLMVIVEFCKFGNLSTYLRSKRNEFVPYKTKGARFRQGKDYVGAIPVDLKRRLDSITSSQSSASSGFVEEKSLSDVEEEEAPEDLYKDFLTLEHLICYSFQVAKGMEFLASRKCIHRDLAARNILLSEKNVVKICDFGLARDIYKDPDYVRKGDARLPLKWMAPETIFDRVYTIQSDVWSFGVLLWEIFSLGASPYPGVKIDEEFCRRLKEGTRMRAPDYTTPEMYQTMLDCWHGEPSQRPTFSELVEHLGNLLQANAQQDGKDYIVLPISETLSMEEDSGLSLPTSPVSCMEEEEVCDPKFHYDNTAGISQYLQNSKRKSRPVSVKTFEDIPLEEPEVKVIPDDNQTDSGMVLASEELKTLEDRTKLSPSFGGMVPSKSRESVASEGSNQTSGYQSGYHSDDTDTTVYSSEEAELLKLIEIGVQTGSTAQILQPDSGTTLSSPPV

Take `COc1nccnc1NS(=O)(=O)c1ccc(N)cc1`: in assay [1], the AC50 is greater than 30 µM.

Compound `NC(=O)c1nc(F)c[nH]c1=O` showed an AC50 in assay [1] greater than 30 µM.

`CN(C)CCCN1C(=O)c2cc([N+](=O)[O-])ccc2Oc2ccccc21` had an AC50 in assay [1] greater than 30 µM.

`O=S(=O)(O)CCS` [2-MERCAPTOETHANESULFONIC ACID] yielded an AC50 in assay [1] greater than 30 µM.

`O=C(O)COc1nn(Cc2ccccc2)c2ccccc12` [BENDAZAC] showed an AC50 in assay [1] greater than 30 µM.

The compound `Cc1ccc([C@@H]2O[C@H](CO)[C@@H](O)[C@H](O)[C@H]2O)cc1Cc1ccc(-c2ccc(F)cc2)s1` [CANAGLIFLOZIN ANHYDROUS] yielded an AC50 in assay [1] greater than 30 µM.

In turn, `O=C(O)CCCc1ccc(N(CCCl)CCCl)cc1` [CHLORAMBUCIL] showed an AC50 in assay [1] greater than 30 µM.

For `CN(C)CCN(Cc1ccc(Cl)cc1)c1ccccn1` [CHLOROPYRAMINE], in assay [1], the AC50 was greater than 30 µM.

In assay [1], `O=C(O)c1cc(=O)c2ccccc2o1` [CHROMOCARB] had an AC50 greater than 30 µM.

Compound `CN(CC(=O)O)C(=N)N` [CREATINE] returned an AC50 in assay [1] greater than 30 µM.

In turn, `Cn1c(=O)c2c(ncn2CC(O)CO)n(C)c1=O` (centres undefined) [DYPHYLLINE] had an AC50 in assay [1] greater than 30 µM.

In assay [1], `C[C@]12CC[C@@H]3c4ccc(O)cc4CC[C@H]3[C@@H]1CC[C@@H]2OC(=O)CCC1CCCC1` [ESTRADIOL CYPIONATE] gave an AC50 greater than 30 µM.

Take `CC1(C)O[C@@H]2C[C@H]3[C@@H]4CCC5=CC(=O)CC[C@]5(C)[C@@]4(F)[C@@H](O)C[C@]3(C)[C@]2(C(=O)CCl)O1` [HALCINONIDE]: the AC50 in assay [1] was greater than 30 µM.

As for `C[C@]12CCC(=O)C=C1CC[C@@H]1[C@@H]2[C@@H](O)C[C@@]2(C)[C@H]1CC[C@]2(O)C(=O)COC(=O)CCC(=O)O` [HYDROCORTISONE HEMISUCCINATE ANHYDROUS], the AC50 in assay [1] was greater than 30 µM.

Turning to `N=C(N)NCc1cccc([123I])c1` [IOBENGUANE I 123], the AC50 in assay [1] was greater than 30 µM.

As for `C=C1c2c(Cl)ccc(O)c2C(=O)C2=C(O)[C@]3(O)C(=O)C(C(N)=O)=C(O)[C@@H](N(C)C)[C@@H]3[C@@H](O)[C@H]12` [MECLOCYCLINE], in assay [1], the half-maximal activity concentration (AC50) is greater than 30 µM.

In assay [1], `Cc1cc2c(OCC(O)CNC(C)C)cccc2[nH]1` (centres undefined) [MEPINDOLOL] registered an AC50 greater than 30 µM.

In assay [1], `CCCCCOc1ccc(-c2cc(-c3ccc(C(=O)N[C@H]4C[C@@H](O)[C@@H](O)NC(=O)[C@@H]5[C@@H](O)[C@@H](C)CN5C(=O)[C@H]([C@H](O)CC(N)=O)NC(=O)[C@H]([C@H](O)[C@@H](O)c5ccc(O)c(OS(=O)(=O)O)c5)NC(=O)[C@@H]5C[C@@H](O)CN5C(=O)[C@H]([C@@H](C)O)NC4=O)cc3)no2)cc1` [MICAFUNGIN] (X1-[Orn(4R-OH,5R-OH)]T[Hyp][hTyr(3S-OH,4S-OH,3'-OSO3H)][Gln(3R-OH)][Pro(3S-OH,4S-Me)]; lactam 1-C) gave an AC50 greater than 30 µM.

Consider `CCOc1cc(N)c(Cl)cc1C(=O)NCC1CN(Cc2ccc(F)cc2)CCO1` (centres undefined) [MOSAPRIDE], for which the AC50 in assay [1] is greater than 30 µM.

Regarding `CCOc1ccc2ccccc2c1C(=O)N[C@@H]1C(=O)N2[C@@H]1SC(C)(C)[C@@H]2C(=O)O` [NAFCILLIN], the AC50 in assay [1] was greater than 30 µM.

In the case of `CN1CCC[C@H]1c1cccnc1` [NICOTINE], the AC50 in assay [1] is greater than 30 µM.

In turn, `C#C[C@]1(O)CC[C@H]2[C@@H]3CCC4=C(CCC(=O)C4)[C@H]3CC[C@@]21C` [NORETHYNODREL] gave an AC50 in assay [1] greater than 30 µM.

As for `CC[C@H]1OC(=O)[C@H](C)[C@@H](O[C@H]2C[C@@](C)(OC)[C@@H](O)[C@H](C)O2)[C@H](C)[C@@H](O[C@@H]2O[C@H](C)C[C@H](N(C)C)[C@H]2O)[C@](C)(O)C[C@@H](C)/C(=N\OCOCCOC)[C@H](C)[C@@H](O)[C@]1(C)O` [ROXITHROMYCIN], the AC50 (in assay [2]; in assay [3]; in assay [4]; in assay [5]; at Progesterone receptor; in assay [6]) was greater than 30 µM throughout.

With `Cc1cc(CC(=O)O)n(C)c1C(=O)c1ccc(Cl)cc1` [ZOMEPIRAC], the AC50 (in assay [2]; in assay [3]; in assay [4]; in assay [5]; on Progesterone receptor; in assay [6]) was greater than 30 µM throughout.
